Where two headings read alike, the source gives them in different places.

The target in one assay is CDK9/CycT1 (Homo sapiens, UniProt P50750). Briefly: Kinase profiling. The class given is biochemical. To be noted: 10 semi-logarithmic dilutions from 50 μM, singlicate.
The test system of assay [1] is MDA-MB-231 human breast cancer cells. Briefly: Cell cycle analysis (DNA content, flow cytometry). Type of assay: cell-based. As to conditions: GI50 concentration; FIG. 1. The method, then:
FIG. 1 depicts DNA content profiles of MDA-MB-231 human breast cancer cells treated with subject compounds or commercial CDK inhibitors, showing the percentage of cells at the different cell cycle phases after 48 hours of the treatments indicated. (n=6 technical replicates).
Cells were collected by trypsinization, washed with PBS and fixed with cold 70% ethanol. Cells were treated with 250 μg/ml RNase (Qiagen) for 30 minutes at 37° C. and stained with 10 μg/ml Propidium Iodide (Sigma). Cell cycle was analyzed by flow cytometry using a LSR Fortessa Analyzer. Cell cycle profiles were generated and analyzed with FlowJo software.
Cells were collected by tripsinization at several times after treatment with the indicated compounds and, then, fixed with cold 70% Ethanol. DNA content was determined by staining with propidium iodide (10 μg/ml, Sigma Aldrich). Data acquisition was performed with a LSR Fortessa analyzer (BD Biosciences) and analysed using FlowJo software.

The target of the next assay is T1, AKT1 aa1-480 (Homo sapiens, UniProt P31749).
T1 construct: AKT1 aa1-480
T1 sequence (P31749 whole entry, the tested form may be a part): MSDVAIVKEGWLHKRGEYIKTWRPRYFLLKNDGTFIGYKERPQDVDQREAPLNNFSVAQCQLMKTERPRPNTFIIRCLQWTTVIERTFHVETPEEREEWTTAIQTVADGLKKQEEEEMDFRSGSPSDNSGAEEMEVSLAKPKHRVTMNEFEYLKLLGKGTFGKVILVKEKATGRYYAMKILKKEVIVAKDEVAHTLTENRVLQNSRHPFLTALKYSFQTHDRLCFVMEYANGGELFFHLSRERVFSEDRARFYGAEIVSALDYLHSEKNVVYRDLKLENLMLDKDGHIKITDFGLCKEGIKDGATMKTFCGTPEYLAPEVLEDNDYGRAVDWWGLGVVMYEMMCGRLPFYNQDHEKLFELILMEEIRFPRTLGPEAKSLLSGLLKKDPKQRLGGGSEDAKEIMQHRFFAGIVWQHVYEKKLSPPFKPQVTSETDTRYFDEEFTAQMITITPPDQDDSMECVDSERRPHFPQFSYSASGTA
Briefly: Kinase profiling. As to conditions: 10 semi-logarithmic dilutions from 50 μM, singlicate. Type of assay: biochemical.

A further assay deals with CDK5/p25NCK (Homo sapiens, UniProt Q00535). Nature of the assay: Kinase profiling. Type of assay: biochemical.
Sequence of CDK5/p25NCK (Q00535 whole entry): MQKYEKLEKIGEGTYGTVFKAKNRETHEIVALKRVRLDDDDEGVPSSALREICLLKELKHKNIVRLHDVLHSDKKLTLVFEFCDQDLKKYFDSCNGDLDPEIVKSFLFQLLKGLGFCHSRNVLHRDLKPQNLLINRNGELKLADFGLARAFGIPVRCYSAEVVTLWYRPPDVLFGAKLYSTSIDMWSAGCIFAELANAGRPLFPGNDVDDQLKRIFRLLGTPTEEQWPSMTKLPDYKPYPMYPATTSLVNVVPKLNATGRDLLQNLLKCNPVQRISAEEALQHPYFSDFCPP
Sequence of CDK5/p25NCK (Q15078 99-307 partner limits assumed): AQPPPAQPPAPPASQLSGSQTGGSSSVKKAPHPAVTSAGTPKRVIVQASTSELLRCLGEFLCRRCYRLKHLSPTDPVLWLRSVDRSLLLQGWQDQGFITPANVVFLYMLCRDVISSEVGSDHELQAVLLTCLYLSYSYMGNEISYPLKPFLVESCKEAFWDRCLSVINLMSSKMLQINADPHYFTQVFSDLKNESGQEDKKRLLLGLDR
The next assay addresses CDK3/CycE1 (Homo sapiens, UniProt Q00526). Nature of the assay: Kinase profiling. The class given is biochemical. To be noted: 10 semi-logarithmic dilutions from 50 μM, singlicate.
For another assay, the target named is PCTAIRE1/CycY (Homo sapiens, UniProt Q00536). Nature of the assay: Kinase profiling. The class given is biochemical. As to conditions: 10 semi-logarithmic dilutions from 50 μM, singlicate.
The target of a further assay is CDK8/CycC (Homo sapiens, UniProt P49336). Briefly: Kinase profiling. The class given is biochemical. As to conditions: 10 semi-logarithmic dilutions from 50 μM, singlicate.
Sequence of CDK8/CycC (P49336 whole entry): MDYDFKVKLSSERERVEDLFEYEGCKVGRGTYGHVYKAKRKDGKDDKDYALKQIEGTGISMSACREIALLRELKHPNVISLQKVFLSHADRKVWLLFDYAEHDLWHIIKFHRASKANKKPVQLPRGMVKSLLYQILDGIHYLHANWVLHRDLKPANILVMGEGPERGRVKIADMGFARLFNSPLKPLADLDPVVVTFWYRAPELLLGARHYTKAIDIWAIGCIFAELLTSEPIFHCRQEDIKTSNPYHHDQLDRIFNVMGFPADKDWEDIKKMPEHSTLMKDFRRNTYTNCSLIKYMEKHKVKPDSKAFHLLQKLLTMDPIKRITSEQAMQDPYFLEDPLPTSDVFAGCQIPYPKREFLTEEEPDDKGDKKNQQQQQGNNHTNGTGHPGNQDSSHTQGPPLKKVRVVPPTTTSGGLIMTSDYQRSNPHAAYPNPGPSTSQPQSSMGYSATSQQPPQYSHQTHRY
Sequence of CDK8/CycC (P24863 whole entry partner): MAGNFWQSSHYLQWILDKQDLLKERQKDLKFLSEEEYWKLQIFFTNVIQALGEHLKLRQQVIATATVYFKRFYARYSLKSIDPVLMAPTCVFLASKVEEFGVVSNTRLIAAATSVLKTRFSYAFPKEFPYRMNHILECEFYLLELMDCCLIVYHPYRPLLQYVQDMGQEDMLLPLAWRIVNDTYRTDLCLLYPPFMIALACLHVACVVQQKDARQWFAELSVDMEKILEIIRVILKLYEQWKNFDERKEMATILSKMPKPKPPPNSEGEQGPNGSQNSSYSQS
The target of the next assay is CDK2/CycA2 (Homo sapiens, UniProt P24941). Nature of the assay: Kinase profiling. Type of assay: biochemical.
Another assay addresses CDK9/CycK (Homo sapiens, UniProt P50750). Briefly: Kinase profiling. To be noted: 10 semi-logarithmic dilutions from 50 μM, singlicate. Type of assay: biochemical.
A further assay deals with CDK4/CycD3 (Homo sapiens, UniProt P11802). Briefly: Kinase profiling. Type of assay: biochemical.
Sequence of CDK4/CycD3 (P11802 whole entry): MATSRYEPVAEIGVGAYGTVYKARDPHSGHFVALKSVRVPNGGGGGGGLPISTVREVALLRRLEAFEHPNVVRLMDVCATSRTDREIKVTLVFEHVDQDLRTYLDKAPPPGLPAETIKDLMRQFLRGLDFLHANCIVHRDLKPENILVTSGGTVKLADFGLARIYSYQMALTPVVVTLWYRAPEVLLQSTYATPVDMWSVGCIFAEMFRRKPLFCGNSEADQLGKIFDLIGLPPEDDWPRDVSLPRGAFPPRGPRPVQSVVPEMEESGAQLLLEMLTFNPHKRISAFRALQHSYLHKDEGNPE
Sequence of CDK4/CycD3 (P30281 whole entry partner): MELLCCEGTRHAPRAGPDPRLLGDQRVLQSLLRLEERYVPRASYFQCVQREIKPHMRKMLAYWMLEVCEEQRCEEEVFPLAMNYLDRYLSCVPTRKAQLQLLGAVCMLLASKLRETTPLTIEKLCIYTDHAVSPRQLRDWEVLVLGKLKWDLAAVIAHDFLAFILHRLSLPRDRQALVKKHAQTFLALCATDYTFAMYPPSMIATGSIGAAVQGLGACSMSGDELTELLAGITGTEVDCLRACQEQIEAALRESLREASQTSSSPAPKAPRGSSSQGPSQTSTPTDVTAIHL
The next assay has as its target T2, DYRK2 (Homo sapiens, UniProt Q92630).
T2 sequence (Q92630 1-601): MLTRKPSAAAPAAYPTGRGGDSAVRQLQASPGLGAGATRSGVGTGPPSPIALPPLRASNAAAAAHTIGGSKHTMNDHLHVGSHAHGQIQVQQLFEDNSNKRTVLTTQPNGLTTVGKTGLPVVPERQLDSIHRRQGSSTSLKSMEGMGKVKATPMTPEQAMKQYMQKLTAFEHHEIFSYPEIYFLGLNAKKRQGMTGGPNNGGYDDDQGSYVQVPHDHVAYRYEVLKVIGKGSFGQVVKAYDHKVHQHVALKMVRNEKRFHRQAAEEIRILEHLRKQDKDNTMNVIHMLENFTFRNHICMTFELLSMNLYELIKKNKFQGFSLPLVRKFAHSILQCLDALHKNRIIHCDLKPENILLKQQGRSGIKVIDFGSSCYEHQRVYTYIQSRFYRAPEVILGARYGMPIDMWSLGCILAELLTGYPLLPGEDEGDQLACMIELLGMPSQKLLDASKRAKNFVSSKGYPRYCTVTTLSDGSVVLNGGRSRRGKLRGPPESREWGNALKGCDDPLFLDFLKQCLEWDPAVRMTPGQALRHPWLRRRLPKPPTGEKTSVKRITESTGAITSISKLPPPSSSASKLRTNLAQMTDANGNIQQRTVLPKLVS
Briefly: Kinase profiling. The class given is biochemical. As to conditions: 10 semi-logarithmic dilutions from 50 μM, singlicate; read-out: IC50 DYRK2.

Setting [2] is: 10 semi-logarithmic dilutions from 50 μM, singlicate.

Sequence of CDK9/CycT1 (P50750 whole entry): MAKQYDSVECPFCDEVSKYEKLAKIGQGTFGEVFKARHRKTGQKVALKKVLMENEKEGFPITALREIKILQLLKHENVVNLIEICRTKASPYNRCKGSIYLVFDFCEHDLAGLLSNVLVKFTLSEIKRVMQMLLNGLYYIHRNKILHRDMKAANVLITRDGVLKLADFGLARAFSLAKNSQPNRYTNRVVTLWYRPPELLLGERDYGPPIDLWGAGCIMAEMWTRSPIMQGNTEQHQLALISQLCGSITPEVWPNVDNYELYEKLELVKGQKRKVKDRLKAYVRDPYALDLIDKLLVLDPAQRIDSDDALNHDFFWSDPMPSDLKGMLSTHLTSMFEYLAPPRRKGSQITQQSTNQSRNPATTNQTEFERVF
Sequence of CDK9/CycT1 (O60563 whole entry partner): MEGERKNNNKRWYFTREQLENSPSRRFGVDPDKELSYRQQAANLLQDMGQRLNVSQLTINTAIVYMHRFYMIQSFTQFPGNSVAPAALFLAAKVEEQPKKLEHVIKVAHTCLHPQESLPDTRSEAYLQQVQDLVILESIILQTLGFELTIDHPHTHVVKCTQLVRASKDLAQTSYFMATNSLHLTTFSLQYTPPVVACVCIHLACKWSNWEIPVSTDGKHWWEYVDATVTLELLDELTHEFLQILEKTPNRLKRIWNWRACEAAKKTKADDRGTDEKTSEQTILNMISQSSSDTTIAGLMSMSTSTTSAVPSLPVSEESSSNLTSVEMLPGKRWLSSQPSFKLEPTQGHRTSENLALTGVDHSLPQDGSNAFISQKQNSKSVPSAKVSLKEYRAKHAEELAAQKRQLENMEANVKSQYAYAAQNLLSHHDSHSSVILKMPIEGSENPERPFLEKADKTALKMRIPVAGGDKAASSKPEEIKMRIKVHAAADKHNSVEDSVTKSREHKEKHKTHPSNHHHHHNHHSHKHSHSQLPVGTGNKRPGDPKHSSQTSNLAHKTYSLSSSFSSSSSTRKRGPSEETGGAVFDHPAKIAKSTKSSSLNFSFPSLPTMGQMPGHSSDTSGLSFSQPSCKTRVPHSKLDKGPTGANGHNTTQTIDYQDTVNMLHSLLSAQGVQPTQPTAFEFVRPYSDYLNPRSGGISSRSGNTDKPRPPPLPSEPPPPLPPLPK
Sequence of CDK9/CycK (P50750 whole entry): as the sequence (P50750 whole entry) above
Sequence of CDK9/CycK (O75909 whole entry partner): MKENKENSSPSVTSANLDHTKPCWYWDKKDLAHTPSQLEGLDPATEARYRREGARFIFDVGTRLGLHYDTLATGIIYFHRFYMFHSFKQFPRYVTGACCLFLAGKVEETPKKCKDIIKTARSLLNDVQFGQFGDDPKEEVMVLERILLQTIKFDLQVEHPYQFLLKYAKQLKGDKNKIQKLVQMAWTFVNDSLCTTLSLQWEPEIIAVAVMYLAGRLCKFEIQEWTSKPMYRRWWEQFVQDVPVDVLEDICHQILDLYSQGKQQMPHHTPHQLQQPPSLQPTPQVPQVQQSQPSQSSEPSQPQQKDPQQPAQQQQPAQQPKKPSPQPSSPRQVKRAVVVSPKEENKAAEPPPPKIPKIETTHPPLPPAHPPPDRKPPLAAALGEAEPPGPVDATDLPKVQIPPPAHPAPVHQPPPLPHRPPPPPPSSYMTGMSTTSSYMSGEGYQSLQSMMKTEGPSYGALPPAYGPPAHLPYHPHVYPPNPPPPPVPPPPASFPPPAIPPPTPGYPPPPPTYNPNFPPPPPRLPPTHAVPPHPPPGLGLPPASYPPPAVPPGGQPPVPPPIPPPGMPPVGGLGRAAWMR
Sequence of CDK3/CycE1 (Q00526 whole entry): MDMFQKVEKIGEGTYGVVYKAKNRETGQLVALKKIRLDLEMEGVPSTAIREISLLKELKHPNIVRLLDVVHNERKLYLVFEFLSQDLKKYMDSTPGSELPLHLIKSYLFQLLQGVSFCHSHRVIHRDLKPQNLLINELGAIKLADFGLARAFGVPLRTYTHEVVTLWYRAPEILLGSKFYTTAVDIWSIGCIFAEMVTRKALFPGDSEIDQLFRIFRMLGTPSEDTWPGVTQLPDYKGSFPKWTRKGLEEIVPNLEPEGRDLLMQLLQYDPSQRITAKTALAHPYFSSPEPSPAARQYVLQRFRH
Sequence of CDK3/CycE1 (P24864 whole entry partner): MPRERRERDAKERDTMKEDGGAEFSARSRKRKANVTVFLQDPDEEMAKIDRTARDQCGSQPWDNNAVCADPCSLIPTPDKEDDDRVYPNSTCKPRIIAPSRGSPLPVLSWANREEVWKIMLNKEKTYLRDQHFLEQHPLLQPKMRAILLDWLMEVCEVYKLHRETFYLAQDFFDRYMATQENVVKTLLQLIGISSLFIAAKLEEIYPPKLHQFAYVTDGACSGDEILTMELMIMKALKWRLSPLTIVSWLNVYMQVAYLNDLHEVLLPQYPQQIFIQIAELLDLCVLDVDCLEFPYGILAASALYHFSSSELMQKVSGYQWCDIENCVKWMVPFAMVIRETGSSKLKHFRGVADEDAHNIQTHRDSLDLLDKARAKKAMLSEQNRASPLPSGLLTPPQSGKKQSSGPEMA

Consider `O=c1ccc2cnc(Nc3ccc(N4CCC(CCCO)CC4)cc3)nc2n1C1CC2CCC1C2` (centres unmarked) [PD-0183812, reference compound], for which the IC50 on CDK9/CycT1 was 484 nM; on AKT1 aa1-480, 48000 nM; on CDK5/p25NCK, 30100 nM; at CDK3/CycE1, 885 nM; at PCTAIRE1/CycY, 43500 nM; against CDK8/CycC, 256 nM. Moreover, the IC50 at CDK2/CycA2 is 341 nM; against CDK9/CycK it was 174 nM; at CDK4/CycD3, 71.8 nM; at DYRK2, > 50000 nM. The “cell cycle arrest by DNA content” value in assay [1] is “arrested cells with a 4N DNA content”.
On to `O=c1ccc2cnc(Nc3ccc(N4CCC(CCCO)CC4)c(F)c3)nc2n1[C@@H]1CC2CCC1C2` (stereo partly drawn) [PS003, 8-((2R)-bicyclo[2.2.1]heptan-2-yl)-2-((3-fluoro-4-(4-(3-hydroxypropyl)piperidin-1-yl)phenyl)amino)pyrido[2,3-d]pyrimidin-7(8H)-one], for which the IC50 against CDK9/CycT1 is 918 nM; on AKT1 aa1-480, > 50000 nM; on CDK5/p25NCK (setting [2]), 4660 nM; against CDK3/CycE1 it was 1130 nM; on PCTAIRE1/CycY, 43800 nM; against CDK8/CycC, 677 nM. For the same compound, the IC50 is 810 nM against CDK2/CycA2 (setting [2]), 456 nM against CDK9/CycK, 376 nM at CDK4/CycD3 (setting [2]) and > 50000 nM on DYRK2. The “cell cycle arrest by DNA content” value in assay [1] is listed as “induced G2/M arrest”.
For the compound `CC(O)CCN1CCN(c2ccc(Nc3ncc4ccc(=O)n([C@@H]5CC6CCC5C6)c4n3)cc2)CC1` (stereo partly drawn) [PS005, 8-((2R)-bicyclo[2.2.1]heptan-2-yl)-2-((4-(4-(3-hydroxybutyl)piperazin-1-yl)phenyl)amino)pyrido[2,3-d]pyrimidin-7(8H)-one], the half-maximal inhibitory concentration (IC50) is 21.4 nM against CDK9/CycT1; > 50000 nM against AKT1 aa1-480; 72.5 nM against CDK5/p25NCK (setting [2]); 27.2 nM against CDK3/CycE1; 7.69 nM on PCTAIRE1/CycY; 17.1 nM at CDK8/CycC. The IC50 against CDK2/CycA2 (setting [2]) stood at 13 nM; at CDK9/CycK, 10.1 nM; against CDK4/CycD3 (setting [2]), 2.97 nM; at DYRK2, 4720 nM. In addition, the “cell cycle arrest by DNA content” value in assay [1] is “accumulation of cells both in G1 and G2/M phases”. Besides, the “cell death (sub-G1 accumulation)” value in assay [1] is reported as “led to cell death”.
Take `O=c1ccc2cnc(Nc3ccc(N4CCNCC4)cc3)nc2n1[C@@H]1CC2CCC1C2` (stereo partly drawn) [PS007, 8-((2R)-bicyclo[2.2.1]heptan-2-yl)-2-((4-(piperazin-1-yl)phenyl)amino)pyrido[2,3-d]pyrimidin-7(8H)-one]: the IC50 against CDK9/CycT1 stood at 13.6 nM; at AKT1 aa1-480, 11600 nM; at CDK5/p25NCK (setting [2]), 52.3 nM; against CDK3/CycE1 it was 11.9 nM; against PCTAIRE1/CycY it was 4.04 nM; on CDK8/CycC, 307 nM. For the same compound, the IC50 amounted to 17.1 nM against CDK2/CycA2 (setting [2]), 7.17 nM against CDK9/CycK, 2.25 nM on CDK4/CycD3 (setting [2]) and 2310 nM on DYRK2. Further, in [1], the “cell cycle arrest by DNA content” value is “accumulation of cells both in G1 and G2/M phases”. The “cell death (sub-G1 accumulation)” value in assay [1] is on record as “led to cell death”.
For the compound `CC(=O)c1c(C)c2cnc(Nc3ccc(N4CCC(CCCO)CC4)cc3)nc2n([C@@H]2CC3CCC2C3)c1=O` (stereo partly drawn) [PS008, 6-acetyl-8-((2R)-bicyclo[2.2.1]heptan-2-yl)-2-((4-(4-(3-hydroxypropyl)piperidin-1-yl)phenyl)amino)-5-methylpyrido[2,3-d]pyrimidin-7(8H)-one], the 50% inhibitory concentration (IC50) against CDK9/CycT1 was 175 nM; against AKT1 aa1-480, > 50000 nM; against CDK5/p25NCK (setting [2]), 9430 nM; at CDK3/CycE1, 25900 nM; on PCTAIRE1/CycY it was 35900 nM; at CDK8/CycC, 27300 nM. Also, the IC50 is 3520 nM against CDK2/CycA2 (setting [2]), 67.5 nM against CDK9/CycK, 261 nM against CDK4/CycD3 (setting [2]) and 9240 nM at DYRK2. Also, in assay [1], the “cell cycle arrest by DNA content” value was “induced accumulation of cells in G0/G1”.
`CC(=O)c1c(C)c2cnc(Nc3ccc(N4CCNCC4)cc3)nc2n([C@@H]2CC3CCC2C3)c1=O` (stereo partly drawn) [PS010, 6-acetyl-8-((2R)-bicyclo[2.2.1]heptan-2-yl)-5-methyl-2-((4-(piperazin-1-yl)phenyl)amino)pyrido[2,3-d]pyrimidin-7(8H)-one]: the IC50 on CDK9/CycT1 is 36.6 nM; against AKT1 aa1-480, > 50000 nM; on CDK5/p25NCK (setting [2]), 395 nM; on CDK3/CycE1, 700 nM; against PCTAIRE1/CycY it was 4310 nM; against CDK8/CycC, 16800 nM. Further, the IC50 at CDK2/CycA2 (setting [2]) was determined as 222 nM; at CDK9/CycK, 12 nM; at CDK4/CycD3 (setting [2]), 5.48 nM; on DYRK2, 1260 nM. Besides, the “cell cycle arrest by DNA content” value in assay [1] was “accumulation of cells both in G1 and G2/M phases”. For the same compound, the “cell death (sub-G1 accumulation)” value in assay [1] is “led to cell death”.
For the compound `O=c1ccc2cnc(Nc3ccc(N4CCC(OCC5(CO)COC5)CC4)cc3)nc2n1[C@@H]1CC2CCC1C2` (stereo partly drawn) [PS016, 8-((2R)-bicyclo[2.2.1]heptan-2-yl)-2-((4-(4-((3-(hydroxymethyl)oxetan-3-yl)methoxy)piperidin-1-yl)phenyl)amino)pyrido[2,3-d]pyrimidin-7(8H)-one], the IC50 at CDK9/CycT1 is 92.5 nM; at AKT1 aa1-480, > 50000 nM; on CDK5/p25NCK (setting [2]), 652 nM; against CDK3/CycE1 it was 93.4 nM; against PCTAIRE1/CycY, 2020 nM; at CDK8/CycC it was 37.9 nM. Further, the IC50 against CDK2/CycA2 (setting [2]) worked out at 49.7 nM; against CDK9/CycK, 46.9 nM; against CDK4/CycD3 (setting [2]) it was 20.8 nM; at DYRK2 it was 19700 nM. Besides, the “cell cycle arrest by DNA content” value in assay [1] is “induced G2/M arrest”.
